The values that follow come from ChEMBL document CHEMBL2424579, “Quinazolin-4-one derivatives as selective histone deacetylase-6 inhibitors for the treatment of Alzheimer's disease” (J Med Chem, 2013).

pEC50, pIC50: −log10 of the molar value. The source made the active and inactive calls. The rule behind the calls is not given here.

For one data set, the target named is T1, Histone deacetylase 11 (Homo sapiens, UniProt Q96DB2).
T1 sequence (Q96DB2 whole entry): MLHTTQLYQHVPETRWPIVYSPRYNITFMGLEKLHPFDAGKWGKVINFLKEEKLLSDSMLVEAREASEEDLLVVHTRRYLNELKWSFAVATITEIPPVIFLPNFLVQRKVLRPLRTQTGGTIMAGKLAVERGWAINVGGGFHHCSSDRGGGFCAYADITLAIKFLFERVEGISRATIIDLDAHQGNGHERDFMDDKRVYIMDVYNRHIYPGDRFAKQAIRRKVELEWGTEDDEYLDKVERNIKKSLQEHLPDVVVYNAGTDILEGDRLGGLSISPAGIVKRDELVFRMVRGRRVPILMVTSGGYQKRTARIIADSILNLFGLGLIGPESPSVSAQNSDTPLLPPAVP
In words: Inhibition of human recombinant HDAC11 expressed in baculovirus/sf9 cells using RHKKAc as substrate.

The target in data set [1] is T2, Histone deacetylase 1 (Homo sapiens, UniProt Q13547). In words: Inhibition of human recombinant HDAC1 expressed in baculovirus/sf9 cells using RHKKAc as substrate.
The subject of data set [2] is PC-12. In words: Induction iof GAP-43 protein expression in rat PC12 cells at 0.1 uM after 48 hrs by Western blotting analysis. Type of data set: functional, cell-based.
The target in data set [3] is Poly [ADP-ribose] polymerase 1 (Homo sapiens) (UniProt P09874). In words: Inhibition of PARP1 (unknown origin) up to 25 uM.
Data set [4] has as its target T3, Protein deacetylase HDAC6 (Homo sapiens, UniProt Q9UBN7).
T3 sequence (Q9UBN7 whole entry): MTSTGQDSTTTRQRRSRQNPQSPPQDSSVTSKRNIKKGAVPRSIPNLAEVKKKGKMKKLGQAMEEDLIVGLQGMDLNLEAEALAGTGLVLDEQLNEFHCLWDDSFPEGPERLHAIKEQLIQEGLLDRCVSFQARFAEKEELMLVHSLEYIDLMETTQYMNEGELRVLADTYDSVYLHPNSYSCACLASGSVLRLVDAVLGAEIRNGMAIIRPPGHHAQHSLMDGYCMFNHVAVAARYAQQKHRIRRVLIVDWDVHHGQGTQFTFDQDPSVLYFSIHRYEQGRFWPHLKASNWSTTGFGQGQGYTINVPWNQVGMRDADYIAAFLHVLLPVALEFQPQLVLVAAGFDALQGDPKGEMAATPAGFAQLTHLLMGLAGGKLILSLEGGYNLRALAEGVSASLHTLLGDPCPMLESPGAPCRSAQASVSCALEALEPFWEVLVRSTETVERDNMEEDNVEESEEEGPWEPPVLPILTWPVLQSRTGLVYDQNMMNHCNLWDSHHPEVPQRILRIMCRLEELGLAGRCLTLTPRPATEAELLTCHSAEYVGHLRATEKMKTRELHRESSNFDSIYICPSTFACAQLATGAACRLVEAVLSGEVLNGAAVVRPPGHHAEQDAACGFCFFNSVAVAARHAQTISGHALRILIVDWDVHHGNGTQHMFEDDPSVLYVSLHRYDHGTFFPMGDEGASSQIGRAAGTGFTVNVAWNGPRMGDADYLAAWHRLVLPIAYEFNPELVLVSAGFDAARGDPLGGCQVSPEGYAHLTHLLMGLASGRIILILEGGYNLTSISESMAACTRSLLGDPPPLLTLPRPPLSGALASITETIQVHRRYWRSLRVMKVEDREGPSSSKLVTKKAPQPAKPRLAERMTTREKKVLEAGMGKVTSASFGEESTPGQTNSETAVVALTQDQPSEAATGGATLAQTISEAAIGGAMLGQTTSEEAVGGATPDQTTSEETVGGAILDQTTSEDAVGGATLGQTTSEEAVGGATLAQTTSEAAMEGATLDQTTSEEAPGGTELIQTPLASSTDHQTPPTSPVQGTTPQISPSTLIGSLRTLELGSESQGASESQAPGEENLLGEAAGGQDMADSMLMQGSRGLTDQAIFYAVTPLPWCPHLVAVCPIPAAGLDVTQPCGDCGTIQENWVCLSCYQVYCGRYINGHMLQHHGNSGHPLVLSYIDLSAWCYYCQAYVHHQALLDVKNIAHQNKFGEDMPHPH
In words: Inhibition of human recombinant HDAC6 expressed in baculovirus/sf9 cells using RHKKAc as substrate.

Data set [5] concerns PC-12. In words: Induction of neurite outgrowth in rat PC12 cells at 10 uM after 5 days. Type of data set: functional, cell-based.
Data set [6] deals with PC-12. In words: Increase of synaptic activity in rat PC12 cells after 5 days by fluorescence assay. Type of data set: functional, cell-based. Particulars: PC-12, 120 h.
Data set [7] in a line: Cytotoxicity against human SH-SY5Y cells at 25 uM. Type of data set: cell-based.
The target in another data set is Cytochrome P450 2D6 (Homo sapiens, UniProt P10635). The data set can be described thus: Inhibition of CYP2D6 (unknown origin) using 3-cyano-7-ethoxycoumarin as substrate. Type of data set: ADME.
In data set [8] the test system is PC-12. The data set can be described thus: Induction of neurite outgrowth in rat PC12 cells after 5 days. It counts as functional, cell-based. Particulars: PC-12, 120 h.
For data set [9], the system named is PC-12. In words: Inhibition of HDAC6 in rat PC12 cells assessed as acetylation of histone H3 at 10 uM after 48 hrs by Western blotting analysis. Type of data set: cell-based.
Data set [10] has as its system SH-SY5Y. In words: Increase of synaptic activity in human SH-SY5Y cells after 5 days by fluorescence assay. Type of data set: functional, cell-based. Particulars: 120 h.
Data set [11] concerns the target Amyloid-beta precursor protein (Homo sapiens, UniProt P05067). In words: Inhibition of amyloid beta aggregation (unknown origin) after 4 hrs by thioflavin S assay in absence of Zn2+.
Data set [12] relates to PC-12. The data set can be described thus: Cytotoxicity against rat PC12 cells at 25 uM. Particulars: pc-12, 25 µM. Type of data set: cell-based.
Data set [13] has as its target T4, Histone deacetylase 2 (Homo sapiens, UniProt Q92769). The data set can be described thus: Inhibition of human recombinant HDAC2 expressed in baculovirus/sf9 cells using RHKKAc as substrate.
The test system of another data set is Vero. The data set can be described thus: Cytotoxicity against african green monkey Vero cells at 25 uM. Type of data set: cell-based. Particulars: chlorocebus sabaeus.
Data set [14] deals with Mus musculus. The data set can be described thus: Antialzheimer activity in wild type learning-impaired Balb/c mouse model with hippocampal lesions at 10 mg/kg, ip administered for 30 days by rotarod test relative to vehicle-treated control. The settings on record: Hippocampus, TDE = time-dependent effect.
The next data set addresses Cytochrome P450 2C19 (Homo sapiens, UniProt P33261). In words: Inhibition of CYP2C19 (unknown origin) using 3-cyano-7-ethoxycoumarin as substrate. Type of data set: ADME.
The target of another data set is Cytochrome P450 3A4 (Homo sapiens, UniProt P08684). In words: Inhibition of CYP3A4 (unknown origin) using Vivid BOMR as substrate. Type of data set: ADME.
In data set [15] the test system is SH-SY5Y. In words: Induction of neurite outgrowth in human SH-SY5Y cells at 10 uM after 5 days. It counts as functional, cell-based.
Another data set deals with T5, Histone deacetylase 8 (Homo sapiens, UniProt Q9BY41).
T5 sequence (Q9BY41 whole entry): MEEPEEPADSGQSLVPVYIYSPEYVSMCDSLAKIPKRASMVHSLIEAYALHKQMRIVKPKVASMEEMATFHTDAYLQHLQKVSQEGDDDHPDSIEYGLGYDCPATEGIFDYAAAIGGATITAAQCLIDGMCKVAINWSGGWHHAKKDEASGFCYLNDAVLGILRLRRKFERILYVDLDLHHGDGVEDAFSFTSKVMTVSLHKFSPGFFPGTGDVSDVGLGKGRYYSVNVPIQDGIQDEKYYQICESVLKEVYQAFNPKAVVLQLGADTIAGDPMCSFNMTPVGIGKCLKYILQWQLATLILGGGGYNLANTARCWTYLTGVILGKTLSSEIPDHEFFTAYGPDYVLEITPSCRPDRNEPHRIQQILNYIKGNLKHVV
The data set can be described thus: Inhibition of human recombinant HDAC8 expressed in baculovirus/sf9 cells using RHKAcKAc as substrate.

For data set [16], the system named is SH-SY5Y. In words: Induction of neurite outgrowth in human SH-SY5Y cells after 5 days. It counts as functional, cell-based. The settings on record: 120 h.
In data set [17] the test system is Mus musculus. In words: Antialzheimer activity in wild type learning-impaired Balb/c mouse model with hippocampal lesions assessed as increase in acetylated alpha-tubulin level in hippocampus region at 10 mg/kg, ip administered for 30 days by rotarod test.
In data set [18] the test system is PC-12. In words: Inhibition of HDAC6 in rat PC12 cells assessed as induction of alpha-tubulin acetylation at 10 uM after 48 hrs by Western blotting analysis. Type of data set: cell-based.
In the next data set the target is Cytochrome P450 2C9 (Homo sapiens, UniProt P11712). The data set can be described thus: Inhibition of CYP2C9 (unknown origin) using Vivid OOMR as substrate. Type of data set: ADME.
For the next data set, the target named is Cytochrome P450 1A2 (Homo sapiens, UniProt P05177). In words: Inhibition of CYP1A2 (unknown origin) using 3-cyano-7-ethoxycoumarin as substrate. It counts as ADME.
For data set [19], the system named is PC-12. The data set can be described thus: Induction iof GAP-43 protein expression in rat PC12 cells after 48 hrs by Western blotting analysis. Type of data set: functional, cell-based.
For data set [20], the target named is T4, Histone deacetylase 2. In words: Inhibition of human recombinant HDAC2 expressed in baculovirus/sf9 cells using RHKKAc as substrate at 1 uM.
Data set [21] concerns the target Histone deacetylase 8 (Homo sapiens) (UniProt Q9BY41). The data set can be described thus: Inhibition of human recombinant HDAC8 expressed in baculovirus/sf9 cells using RHKAcKAc as substrate at 1 uM.
In data set [22] the target is Protein deacetylase HDAC6 (Homo sapiens) (UniProt Q9UBN7). In words: Inhibition of human recombinant HDAC6 expressed in baculovirus/sf9 cells using RHKKAc as substrate at 1 uM.
Data set [23] has as its target Histone deacetylase 11 (Homo sapiens) (UniProt Q96DB2). In words: Inhibition of human recombinant HDAC11 expressed in baculovirus/sf9 cells using RHKKAc as substrate at 1 uM.
For data set [24], the target named is T2, Histone deacetylase 1. The data set can be described thus: Inhibition of human recombinant HDAC1 expressed in baculovirus/sf9 cells using RHKKAc as substrate at 1 uM.
Data set [25] deals with Polyamine deacetylase HDAC10 (Homo sapiens) (UniProt Q969S8). The data set can be described thus: Inhibition of human recombinant HDAC10 expressed in baculovirus/sf9 cells using RHKKAc as substrate at 1 uM.
Sequence of Polyamine deacetylase HDAC10 (Homo sapiens) (Q969S8 whole entry): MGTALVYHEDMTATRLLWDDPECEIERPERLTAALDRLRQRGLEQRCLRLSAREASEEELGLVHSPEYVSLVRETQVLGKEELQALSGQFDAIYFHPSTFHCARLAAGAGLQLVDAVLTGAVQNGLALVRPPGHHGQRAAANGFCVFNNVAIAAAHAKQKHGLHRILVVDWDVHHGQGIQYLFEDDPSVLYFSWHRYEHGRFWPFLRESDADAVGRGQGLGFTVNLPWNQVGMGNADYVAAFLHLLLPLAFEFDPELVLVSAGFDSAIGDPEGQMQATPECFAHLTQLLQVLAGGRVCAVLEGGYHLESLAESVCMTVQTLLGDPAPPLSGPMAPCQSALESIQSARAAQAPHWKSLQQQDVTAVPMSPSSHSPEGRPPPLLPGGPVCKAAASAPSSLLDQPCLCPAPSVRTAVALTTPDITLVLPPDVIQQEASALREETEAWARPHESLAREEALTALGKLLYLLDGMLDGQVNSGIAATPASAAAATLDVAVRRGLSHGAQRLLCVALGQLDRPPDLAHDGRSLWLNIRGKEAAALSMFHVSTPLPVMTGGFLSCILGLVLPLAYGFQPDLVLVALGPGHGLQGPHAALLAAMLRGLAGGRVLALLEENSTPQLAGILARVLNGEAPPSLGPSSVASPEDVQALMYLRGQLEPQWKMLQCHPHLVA

T2 sequence (Q13547 whole entry): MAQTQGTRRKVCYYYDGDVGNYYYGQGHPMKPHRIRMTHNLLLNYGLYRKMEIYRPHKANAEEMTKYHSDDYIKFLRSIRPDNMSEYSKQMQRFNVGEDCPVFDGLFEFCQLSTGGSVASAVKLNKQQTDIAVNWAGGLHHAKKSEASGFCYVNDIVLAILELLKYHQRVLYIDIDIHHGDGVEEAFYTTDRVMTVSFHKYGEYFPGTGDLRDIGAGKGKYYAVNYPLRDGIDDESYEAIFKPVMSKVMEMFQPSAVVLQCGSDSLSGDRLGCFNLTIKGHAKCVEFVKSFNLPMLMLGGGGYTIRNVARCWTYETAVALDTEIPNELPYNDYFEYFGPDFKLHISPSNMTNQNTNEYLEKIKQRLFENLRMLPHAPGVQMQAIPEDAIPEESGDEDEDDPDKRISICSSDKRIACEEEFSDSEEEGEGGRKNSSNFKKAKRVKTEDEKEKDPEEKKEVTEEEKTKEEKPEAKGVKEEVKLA
T4 sequence (Q92769 whole entry): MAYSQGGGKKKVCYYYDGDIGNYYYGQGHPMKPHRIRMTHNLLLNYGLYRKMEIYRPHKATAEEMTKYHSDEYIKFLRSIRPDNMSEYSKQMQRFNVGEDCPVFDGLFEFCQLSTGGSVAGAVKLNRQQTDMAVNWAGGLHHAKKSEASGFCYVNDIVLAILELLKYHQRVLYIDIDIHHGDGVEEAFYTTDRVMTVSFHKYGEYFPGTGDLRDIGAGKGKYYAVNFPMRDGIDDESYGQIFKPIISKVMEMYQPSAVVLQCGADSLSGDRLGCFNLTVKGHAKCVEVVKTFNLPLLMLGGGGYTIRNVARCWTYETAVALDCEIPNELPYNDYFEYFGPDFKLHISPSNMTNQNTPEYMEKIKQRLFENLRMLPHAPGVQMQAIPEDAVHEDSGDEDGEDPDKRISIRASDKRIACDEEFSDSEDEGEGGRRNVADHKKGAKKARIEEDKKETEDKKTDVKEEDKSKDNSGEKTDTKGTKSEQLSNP
Sequence of Cytochrome P450 3A4 (P08684 whole entry): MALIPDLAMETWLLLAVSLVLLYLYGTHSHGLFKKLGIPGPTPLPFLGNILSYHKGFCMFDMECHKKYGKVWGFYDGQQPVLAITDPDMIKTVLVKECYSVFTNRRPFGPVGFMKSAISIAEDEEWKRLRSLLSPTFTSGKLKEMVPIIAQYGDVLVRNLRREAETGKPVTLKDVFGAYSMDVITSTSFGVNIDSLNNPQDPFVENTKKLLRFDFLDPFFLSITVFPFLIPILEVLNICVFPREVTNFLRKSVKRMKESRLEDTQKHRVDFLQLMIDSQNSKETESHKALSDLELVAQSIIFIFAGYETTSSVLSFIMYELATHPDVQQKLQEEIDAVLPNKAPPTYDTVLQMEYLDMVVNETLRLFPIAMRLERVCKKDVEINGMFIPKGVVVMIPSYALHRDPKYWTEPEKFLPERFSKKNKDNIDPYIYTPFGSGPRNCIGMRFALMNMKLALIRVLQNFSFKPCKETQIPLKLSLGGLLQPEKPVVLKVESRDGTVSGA
Sequence of Amyloid-beta precursor protein (P05067 whole entry): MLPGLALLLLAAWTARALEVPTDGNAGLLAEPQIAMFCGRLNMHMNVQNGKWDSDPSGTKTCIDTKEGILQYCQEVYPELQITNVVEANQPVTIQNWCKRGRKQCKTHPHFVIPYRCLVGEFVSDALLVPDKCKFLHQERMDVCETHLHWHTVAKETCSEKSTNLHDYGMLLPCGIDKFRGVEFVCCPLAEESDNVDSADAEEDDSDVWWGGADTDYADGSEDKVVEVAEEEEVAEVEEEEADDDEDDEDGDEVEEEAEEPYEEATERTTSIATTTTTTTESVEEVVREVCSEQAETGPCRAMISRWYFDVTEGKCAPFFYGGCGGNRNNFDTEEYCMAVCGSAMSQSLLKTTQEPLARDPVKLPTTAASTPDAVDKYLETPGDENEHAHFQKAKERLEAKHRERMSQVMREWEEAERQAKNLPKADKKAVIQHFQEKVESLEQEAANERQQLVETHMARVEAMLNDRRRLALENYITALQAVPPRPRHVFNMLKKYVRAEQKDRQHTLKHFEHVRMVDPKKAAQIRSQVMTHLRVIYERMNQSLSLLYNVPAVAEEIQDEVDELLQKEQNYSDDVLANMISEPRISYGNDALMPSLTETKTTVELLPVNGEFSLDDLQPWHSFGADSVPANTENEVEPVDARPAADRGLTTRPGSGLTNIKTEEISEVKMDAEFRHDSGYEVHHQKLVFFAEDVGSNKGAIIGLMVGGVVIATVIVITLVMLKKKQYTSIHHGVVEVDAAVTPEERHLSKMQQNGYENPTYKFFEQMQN
Sequence of Cytochrome P450 2D6 (P10635 whole entry): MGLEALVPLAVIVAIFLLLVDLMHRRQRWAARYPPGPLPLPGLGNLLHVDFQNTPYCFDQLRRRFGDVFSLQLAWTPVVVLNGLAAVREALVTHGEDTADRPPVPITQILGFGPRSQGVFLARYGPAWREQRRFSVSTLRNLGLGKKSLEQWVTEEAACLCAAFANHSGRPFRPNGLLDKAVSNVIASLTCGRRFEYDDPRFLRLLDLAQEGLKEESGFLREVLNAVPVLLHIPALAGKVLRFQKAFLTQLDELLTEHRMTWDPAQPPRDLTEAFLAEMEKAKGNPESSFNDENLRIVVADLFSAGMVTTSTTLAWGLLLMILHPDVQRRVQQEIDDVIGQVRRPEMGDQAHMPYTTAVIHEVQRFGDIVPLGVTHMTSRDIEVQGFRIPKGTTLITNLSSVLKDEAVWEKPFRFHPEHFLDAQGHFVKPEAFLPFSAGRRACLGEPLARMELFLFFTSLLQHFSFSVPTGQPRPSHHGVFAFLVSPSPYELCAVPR
Sequence of Cytochrome P450 2C9 (P11712 whole entry): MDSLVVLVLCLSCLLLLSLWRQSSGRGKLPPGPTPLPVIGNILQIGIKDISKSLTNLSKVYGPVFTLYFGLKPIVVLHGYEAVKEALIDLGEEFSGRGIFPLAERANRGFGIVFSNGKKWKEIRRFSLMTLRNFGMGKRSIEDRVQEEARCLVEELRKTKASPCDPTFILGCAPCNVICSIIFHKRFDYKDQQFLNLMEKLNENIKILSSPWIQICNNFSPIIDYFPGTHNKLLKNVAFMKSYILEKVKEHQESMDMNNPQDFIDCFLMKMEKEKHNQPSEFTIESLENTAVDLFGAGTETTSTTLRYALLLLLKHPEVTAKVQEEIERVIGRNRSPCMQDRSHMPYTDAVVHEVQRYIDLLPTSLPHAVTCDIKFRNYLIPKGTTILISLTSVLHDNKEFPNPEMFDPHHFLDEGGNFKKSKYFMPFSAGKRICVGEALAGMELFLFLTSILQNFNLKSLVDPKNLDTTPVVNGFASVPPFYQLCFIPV
Sequence of Cytochrome P450 2C19 (P33261 whole entry): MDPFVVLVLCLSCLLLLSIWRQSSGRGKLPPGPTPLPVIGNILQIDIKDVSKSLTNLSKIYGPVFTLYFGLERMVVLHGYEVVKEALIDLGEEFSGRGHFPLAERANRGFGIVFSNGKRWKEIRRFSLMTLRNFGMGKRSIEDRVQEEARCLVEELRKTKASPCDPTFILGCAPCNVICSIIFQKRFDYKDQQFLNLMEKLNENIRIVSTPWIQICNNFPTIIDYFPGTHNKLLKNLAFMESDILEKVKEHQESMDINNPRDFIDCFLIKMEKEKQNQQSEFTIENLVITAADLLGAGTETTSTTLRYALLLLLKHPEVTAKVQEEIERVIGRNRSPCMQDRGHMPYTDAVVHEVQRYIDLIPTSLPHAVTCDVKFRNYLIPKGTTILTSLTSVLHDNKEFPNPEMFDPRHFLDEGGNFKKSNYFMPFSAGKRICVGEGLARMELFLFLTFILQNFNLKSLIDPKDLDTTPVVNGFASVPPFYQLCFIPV
Sequence of Cytochrome P450 1A2 (P05177 whole entry): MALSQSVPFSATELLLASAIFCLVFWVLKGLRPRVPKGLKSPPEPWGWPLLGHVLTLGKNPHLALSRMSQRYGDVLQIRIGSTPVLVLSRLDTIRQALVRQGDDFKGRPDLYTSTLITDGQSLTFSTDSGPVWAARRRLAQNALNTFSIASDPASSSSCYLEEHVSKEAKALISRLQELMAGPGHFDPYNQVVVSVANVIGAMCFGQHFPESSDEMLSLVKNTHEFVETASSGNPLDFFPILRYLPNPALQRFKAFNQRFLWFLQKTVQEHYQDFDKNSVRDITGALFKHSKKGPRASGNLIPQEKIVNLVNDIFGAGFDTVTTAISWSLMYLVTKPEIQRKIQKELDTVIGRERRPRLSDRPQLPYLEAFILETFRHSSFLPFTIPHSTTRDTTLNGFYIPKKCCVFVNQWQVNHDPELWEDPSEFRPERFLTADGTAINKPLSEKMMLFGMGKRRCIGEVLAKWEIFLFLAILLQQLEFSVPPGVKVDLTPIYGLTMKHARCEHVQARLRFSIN

With `Cc1nc2cc(/C=C/C(=O)NO)ccc2c(=O)n1CCc1ccccc1`, the pIC50 was 5.39 at Histone deacetylase 11; 5.73 on Histone deacetylase 1 [1]; 7.54 in data set [4]; less than 5.00 against Cytochrome P450 2D6; less than 4.30 in data set [11]; 5.19 at Histone deacetylase 2 [13]. The pIC50 was less than 5.00 at Cytochrome P450 2C19; 5.19 against Cytochrome P450 3A4; 5.76 at Histone deacetylase 8; 5.04 on Cytochrome P450 2C9; less than 5.00 on Cytochrome P450 1A2. Further, the result with PC-12 [2], in the data set with PC-12 [5], with SH-SY5Y [15] and with Mus musculus [17] was Active. Moreover, in [3], the inhibition result was “inactive”. Besides, the negative-log EC50 (pEC50) with PC-12 [6] was 5.19; in the data set with PC-12 [8], 5.14; with SH-SY5Y [10] it was 5.17; with SH-SY5Y [16], 5.04. For the same compound, the Activity entry was “Non-toxic” in [7]; “Non-toxic” in the data set with PC-12 [12]; “Non-toxic” with Vero; “tde” in the data set with Mus musculus [14]; “Dose-dependent effect” with PC-12 [19]. For the same compound, the inhibition result with PC-12 [9] and in the data set with PC-12 [18] was “Active” in each case.
`CCc1nc2c(-c3ccc(C(=O)NO)cc3)cccc2c(=O)n1CCc1ccccc1`: the inhibition entry (on Histone deacetylase 2 [20]; in [23]; on Histone deacetylase 1 [24]; in data set [25]) was “inactive” throughout. For the same compound, the inhibition in data set [21] and in data set [22] was 50% throughout.
